Data reported in US6399542B1, “Alkoxyimino-substituted bicyclic compounds compositions containing the same and method of making such compounds” (Agro-Kanesho Co., Ltd., priority 1997, dated 2002).
Like-named read-outs stand apart in the source and are kept apart here.

Assays:
Type in all cases: in vivo
Puccinia recondita = assay: Effect on Wheat brown rust (preventive spray test); details: 7 days after inoculation
[1] = test system: Psecidoperonospora cubensis; assay: Effect on Cucumber downy mildew (preventive spray test); details: 7 days after inoculation
Erysiphe graminis = assay: Effects on Barley powdery mildew (preventive spray test); details: lesions counted seven days after inoculation
Phytophthora infestans = details: Tomato late blight, 5 days after inoculation
[2] = conc. of active ingredient 20 ppm
[3] = conc. of active ingredient 100 ppm
[4] = conc. of active ingredient 4 ppm

SMILES | Preventive rate (%) (Puccinia recondita; [2]) | Preventive rate (%) (Puccinia recondita; [3]) | Preventive rate (%) [1, 2] [%] | Preventive rate (%) [1, 3] [%] | Preventive rate (%) (Puccinia recondita; [4]) | other results
CNC(=O)C(OC)c1ccccc1COc1ccc2c(c1)OCCC2=NOC (racemic) [c-11] | 93 | 99 | – | – | – | –
CCc1cc2c(cc1OCc1ccccc1/C(=N\OC)C(=O)OC)OCC2=NOC (single isomer, unassigned) [a-29] | – | – | 97 | 97 | – | –
CCc1cc2c(cc1OCc1ccccc1/C(=N\OC)C(=O)NC)OCC2=NOC (single isomer, unassigned) [a-31] | – | – | – | – | – | Preventive rate (%) (Erysiphe graminis; [2]): 99%; Preventive rate (%) (Erysiphe graminis; [3]): 100%
CON=C(C(=O)OC)c1ccccc1COc1cc2c(cc1C)C(=NOC)C(C)C2 (single isomer, unassigned) [f-9] | – | – | 100 | 100 | – | Preventive rate (%) [1, 4]: 100%; Preventive rate (%) (Phytophthora infestans; [2]): 93%; Preventive rate (%) (Phytophthora infestans; [3]): 98%
CCc1cc2c(cc1OCc1ccccc1/C(=N\OC)C(=O)NC)OCC2=NOC [a-32] | – | – | 81 | 97 | – | Preventive rate (%) (Phytophthora infestans; [2]): 98%; Preventive rate (%) (Phytophthora infestans; [3]): 91%
CO/N=C(/C(=O)OC)c1ccccc1COc1ccc2c(c1C)OCC2=NOCC#N [a-48] | 100 | 100 | 100 | 100 | 100 | Preventive rate (%) (Phytophthora infestans; [2]): 81%; Preventive rate (%) (Phytophthora infestans; [3]): 94%
CNC(=O)/C(=N/OC)c1ccccc1COc1ccc2c(c1C)OCC2=NOCC#N [a-49] | 100 | 100 | 100 | 100 | 100 | Preventive rate (%) [1, 4]: 88%; Preventive rate (%) (Phytophthora infestans; [2]): 97%; Preventive rate (%) (Phytophthora infestans; [3]): 97%
CNC(=O)/C(=N/OC)c1ccccc1COc1ccc2c(c1C)OCC2=NOCC(=O)OC [a-54] | 100 | 100 | – | – | 100 | –
C/C=C/CON=C1COc2c1ccc(OCc1ccccc1/C(=N\OC)C(=O)NC)c2C [a-65] | 100 | 100 | 94 | 100 | – | Preventive rate (%) (Phytophthora infestans; [2]): 97%; Preventive rate (%) (Phytophthora infestans; [3]): 100%
CO/N=C(/C(=O)OC)c1ccccc1COc1ccc2c(c1C)OCC2=NOCC=C(C)C [a-66] | 100 | 100 | – | – | 100 | –
CO/N=C(/C(=O)OC)c1ccccc1COc1ccc2c(c1C)OCC2=NOCc1ccccc1 [a-72] | 100 | 100 | – | – | – | –
CNC(=O)/C(=N/OC)c1ccccc1COc1ccc2c(c1C)OCC2=NOCc1ccccc1 [a-73] | 100 | 100 | 88 | 88 | 100 | Preventive rate (%) (Erysiphe graminis; [4]): 98%; Preventive rate (%) (Erysiphe graminis; [2]): 100%; Preventive rate (%) (Erysiphe graminis; [3]): 100%
CO/N=C(/C(=O)OC)c1ccccc1COc1ccc2c(c1C)OCC2=NOCc1ccc(Cl)c(Cl)c1 [a-78] | 100 | 100 | – | – | 95 | –
CNC(=O)/C(=N/OC)c1ccccc1COc1ccc2c(c1C)OCC2=NOCc1ccc(Cl)c(Cl)c1 [a-79] | 98 | 100 | – | – | 98 | –
CON=C1CCOc2cc(OCc3ccccc3N(OC)C(=O)OC)ccc21 [c-7] | 99 | 100 | 94 | 100 | – | –
CON=C(C(=O)OC)c1ccccc1COc1cc2c(cc1C)C(=NOC)CCO2 [c-26] | 98 | 99 | 100 | 100 | – | –
CCc1c(OCc2ccccc2C(=NOC)C(=O)OC)ccc2c1OCCC2=NOC [c-29] | 100 | 100 | – | – | 96 | Preventive rate (%) (Erysiphe graminis; [2]): 95%; Preventive rate (%) (Erysiphe graminis; [3]): 99%

SMILES | Preventive rate (%) (Puccinia recondita; [2]) | Preventive rate (%) (Puccinia recondita; [3]) | Preventive rate (%) [1, 2] [%] | Preventive rate (%) [1, 3] [%] | Preventive rate (%) (Puccinia recondita; [4]) | other results
CCCCON=C1CCOc2c1ccc(OCc1ccccc1C(=NOC)C(=O)NC)c2C [c-43] | 93 | – | – | – | – | –
CON=C(C(=O)OC)c1ccccc1COc1ccc2c(c1C)OCCC2=NOCC#N [c-48] | 100 | 100 | – | – | 100 | –
CNC(=O)C(=NOC)c1ccccc1COc1ccc2c(c1C)OCCC2=NOCC#N [c-49] | 93 | 94 | – | – | 91 | –
CON=C(C(=O)OC)c1ccccc1COc1ccc2c(c1C)OCCC2=NOC(C)(C)C [c-52] | 93 | 100 | – | – | – | –
CON=C(C(=O)OC)c1ccccc1COc1ccc2c(c1C)OCCC2=NOCC=CCl [c-61] | 100 | 100 | – | – | 99 | –
CON=C(C(=O)OC)c1ccccc1COc1ccc2c(c1)OCCC2=NOCC=CCl [c-63] | 99 | 100 | – | – | – | –
CNC(=O)C(=NOC)c1ccccc1COc1ccc2c(c1C)OCCC2=NOCC=C(C)C [c-67] | 100 | 100 | – | – | 100 | Preventive rate (%) (Erysiphe graminis; [2]): 100%; Preventive rate (%) (Erysiphe graminis; [3]): 100%
CON=C(C(=O)OC)c1ccccc1COc1ccc2c(c1C)OCCC2=NOCc1ccc(Cl)c(Cl)c1 [c-78] | 96 | 100 | – | – | – | –
CNC(=O)C(=NOC)c1ccccc1COc1ccc2c(c1C)OCCC2=NOCc1ccc(Cl)c(Cl)c1 [c-79] | 100 | 100 | – | – | 97 | Preventive rate (%) (Erysiphe graminis; [2]): 100%; Preventive rate (%) (Erysiphe graminis; [3]): 100%
CON=C(C(=O)OC)c1ccccc1COc1ccc2c(c1C)OCCC2=NOCc1cccc(F)c1 [c-80] | 98 | 100 | – | – | – | –
CNC(=O)C(=NOC)c1ccccc1COc1ccc2c(c1C)OCCC2=NOCc1cccc(F)c1 [c-81] | 99 | 100 | – | – | 98 | Preventive rate (%) (Erysiphe graminis; [2]): 98%; Preventive rate (%) (Erysiphe graminis; [3]): 98%
CON=C(C(=O)OC)c1ccccc1COc1ccc2c(c1C)OCCC2=NOCc1c(F)c(F)c(F)c(F)c1F [c-82] | 96 | 100 | – | – | – | Preventive rate (%) (Erysiphe graminis; [2]): 86%; Preventive rate (%) (Erysiphe graminis; [3]): 100%
CNC(=O)C(=NOC)c1ccccc1COc1ccc2c(c1C)OCCC2=NOCc1cccc2ccccc12 [c-89] | 100 | 100 | – | – | 96 | Preventive rate (%) (Erysiphe graminis; [2]): 92%; Preventive rate (%) (Erysiphe graminis; [3]): 98%
CON=C1CCc2cc(OCc3ccccc3C(=NOC)C(=O)OC)ccc21 [e-4] | 98 | – | – | – | – | –
CON=C(C(=O)OC)c1ccccc1COc1ccc2c(c1C)CCC2=NOC [e-15] | 98 | 99 | 95 | 100 | – | –
CON=C(C(=O)OC)c1ccccc1COc1ccc2c(c1C)CCC2=NOCC=CCl [e-57] | – | – | 94 | 100 | – | –
C#CCON=C1CCc2c1ccc(OCc1ccccc1C(=NOC)C(=O)OC)c2C [e-60] | – | – | 88 | 100 | – | –
